Measured values taken from paper PMC11335206, “Exploring oak processionary caterpillar induced lepidopterism (part 2): ex vivo bio-assays unmask the role of TRPV1” (Cellular and Molecular Life Sciences: CMLS, 2024).
Positions of bridges follow the written chain, without caps; N, C: chain ends. No end group written: not given here.

Key:
[1] = system: hTRPA1; assay: TEVC electrophysiology on TRPA1 expressing oocytes; format: cell-based, human; conditions: 1 µM A967079; 50 µM mustard oil; holding −90 mV; n ≥ 3
Method: (§2) We used Xenopus laevis oocytes as a heterologous expression system in electrophysiological experiments to express ligand-gated and voltage-gated ion channels. […] Plasmids corresponding to each channel or receptor underwent linearization using specific restriction enzymes and subsequent transcription with the T3, T7, or SP6 mMESSAGE mMACHINE transcription kit (Ambion, USA). Depending on the channel type, defolliculated oocytes were injected with 10–50 nL of cRNA at a concentration of 1 ng/nL using a micro-injector (Nanoject II; Drummond Scientific Company, USA). Electrophysiological experiments were conducted following cRNA injection, with an incubation period of 1–5 days at 16 °C in ND96 buffer.
(§3) A two-electrode voltage clamp (TEVC) system utilizing a GeneClamp 500 amplifier (Molecular Devices, Downingtown, PA, USA) was under the control of a pClamp data acquisition system (Axon Instruments, USA), and pClamp Clampex 10.4 software (Axon Instruments®, USA). This setup was employed to measure currents across the cell membrane. The whole-cell currents from the oocytes were recorded at room temperature (18–22 °C). […]
TRPV1 and TRPA1 currents were continuously monitored in a perfusing ND96 solution, following a protocol at −90 mV for 400 s. […]

[2] = system: individuals with atopic dermatitis; conditions: topical, phase III, ref [36]; cited from earlier work
Source text: The results are consistent with the discoveries presented by Yao et al. (2019) regarding Latoia consocia, a caterpillar indigenous to South-West China. […] Despite substantial investments in the quest for TRPV1 antagonists, yet no antagonist is available on the market. Presently, a ...

[3] = system: hH4R; assay: TEVC on H4R-GIRK1/GIRK2-RGS4 oocytes; format: cell-based, human
Method: as §2
A two-electrode voltage clamp (TEVC) system utilizing a GeneClamp 500 amplifier (Molecular Devices, Downingtown, PA, USA) was under the control of a pClamp data acquisition system (Axon Instruments, USA), and pClamp Clampex 10.4 software (Axon Instruments®, USA). This setup was employed to measure currents across the cell membrane. The whole-cell currents from the oocytes were recorded at room temperature (18–22 °C). Two micro-electrodes, comprising voltage and current electrodes, were crafted from borosilicate glass capillaries (1.14 mm outside diameter, 0.7 mm inside diameter), pulled using a microelectrode puller, PUL-1 (World Precision Instruments, USA). […]

[4] = ref [28], cited from earlier work
[5] = target: hTRPV1 (Homo sapiens, UniProt Q8NER1); assay: TEVC electrophysiology on TRPV1 expressing oocytes; format: cell-based
Source text: We used Xenopus laevis oocytes as a heterologous expression system in electrophysiological experiments to express ligand-gated and voltage-gated ion channels. Molecular biology techniques (subcloning, transformation, linearization and transcription) were used to make RNA encoding: (1) transient receptor potential channel (hTRPV1 and hTRPA1), (2) histamine receptors (hH1R and hH4R), (3) bradykinin receptor (hB2R), (4) nicotinic acetylcholine receptor (adult muscle type hα1β1δε nAChR and neuronal hα7 nAChR), (5) acid-sensing ion channel (rASIC1a), (6) voltage-gated sodium channels (rNav1.1, rNav1.2, rNav1.3, rNav1.4, mNav1.6 and hNav1.8) and their auxiliary subunits rβ1 and hβ1 and (7) potassium channels (hKv1.1, hKv1.2, hKv1.3, hKv1.4, hKv1.5, hKv1.6, hKv3.1, hKv10.1, mGIRK1, mGIRK2 and mIRK1). Plasmids corresponding to each channel or receptor underwent linearization using specific restriction enzymes and subsequent transcription with the T3, T7, or SP6 mMESSAGE mMACHINE transcription kit (Ambion, USA). Depending on the channel type, defolliculated oocytes were injected with 10–50 nL of cRNA at a concentration of 1 ng/nL using a micro-injector (Nanoject II; Drummond Scientific Company, USA). Electrophysiological experiments were conducted following cRNA injection, with an incubation period of 1–5 days at 16 °C in ND96 buffer.

[6] = system: TRPV1; design: method as in earlier work; conditions: Latoia consocia; ref [35] Yao et al. (2019); cited from earlier work
[7] = system: hH1R; format: cell-based, human
Method: as §2, §3
(§4) The H1R and B2R couples with Gαq/11 proteins, initiating the release of Ca^2+ from the intracellular stores. This rise in intracellular Ca^2+ will activate the Ca^2+-activated Cl^− channels, serving as a sensitive readout.

[8] = system: TRPV1; conditions: HEK293 cells, ref [44] Ahern et al. (2005), cited from earlier work
Source text: (§1) Putrescine is a small aliphatic polyamine synthesized by ornithine decarboxylase (ODC) and found in the venom of other animals. Under physiological conditions, putrescine undergoes complete protonation. This property enables putrescine to interact with negatively charged macromolecules, such as DNA, RNA, ATP, phospholipids, or proteins. As a result, it plays a significant role in v ...

[9] = system: histamine-N-methyltransferase; conditions: ref [47]; cited from earlier work
Source text: as §1

[10] = system: rat paw; conditions: 10 µmol/paw, subcutaneous injection, ref [46]; cited from earlier work
Source text: as §1

[11] = system: hB2R; assay: TEVC on B2R expressing oocytes; format: cell-based, human; conditions: 1 µM bradykinin; ramp −120 to +70 mV from −20 mV
Method: as §2, §3, §4

hTRPV1, sequence (Q8NER1 whole entry): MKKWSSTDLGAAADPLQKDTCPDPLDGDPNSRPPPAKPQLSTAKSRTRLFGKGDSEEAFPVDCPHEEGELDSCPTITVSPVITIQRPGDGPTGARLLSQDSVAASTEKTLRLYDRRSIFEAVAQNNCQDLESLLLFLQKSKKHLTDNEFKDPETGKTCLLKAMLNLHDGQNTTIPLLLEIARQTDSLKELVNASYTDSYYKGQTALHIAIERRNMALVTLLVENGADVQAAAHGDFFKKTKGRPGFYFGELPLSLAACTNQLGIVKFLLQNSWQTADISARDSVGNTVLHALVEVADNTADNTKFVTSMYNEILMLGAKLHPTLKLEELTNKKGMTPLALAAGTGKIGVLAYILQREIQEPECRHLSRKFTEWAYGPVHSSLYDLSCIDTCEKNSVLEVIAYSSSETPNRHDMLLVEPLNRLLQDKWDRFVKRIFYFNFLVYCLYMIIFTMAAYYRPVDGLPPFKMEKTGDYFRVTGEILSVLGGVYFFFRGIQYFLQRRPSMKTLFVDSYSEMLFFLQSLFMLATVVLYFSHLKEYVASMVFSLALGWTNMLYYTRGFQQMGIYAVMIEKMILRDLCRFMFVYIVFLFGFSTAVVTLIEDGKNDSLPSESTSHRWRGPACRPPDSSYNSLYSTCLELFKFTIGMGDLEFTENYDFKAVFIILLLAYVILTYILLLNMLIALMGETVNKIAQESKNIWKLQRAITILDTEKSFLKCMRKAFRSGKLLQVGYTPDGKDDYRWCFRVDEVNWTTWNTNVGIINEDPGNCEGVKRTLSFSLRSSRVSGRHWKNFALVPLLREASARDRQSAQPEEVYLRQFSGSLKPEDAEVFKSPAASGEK

In the case of `CCC(=N\O)/C(C)=C/c1ccc(F)cc1` [A967079], the “block of mustard oil effect on TRPA1” value [1] is reported as “is blocked”.
In the case of `CCCc1nc(C(F)(F)F)ccc1/C=C/C(=O)N[C@H](C)c1cc(F)c(NS(C)(=O)=O)c(F)c1` [Asivatrep], the clinical efficacy [2] is given as “encouraging results” and the safety profile [2] is given as “a favorable safety profile”.
In the case of `CN1CCN(C(=O)c2cc3cc(Cl)ccc3[nH]2)CC1` [JNJ 7777120], the “block of histamine effect on H4R” value [3] is reported as “The effect of histamine (blue) was blocked”.
For `CC(c1cc2ccccc2s1)N(O)C(N)=O` (stereo not drawn) [Zileuton], the “suppression of pain and edema induced by secapin-2” value ([4]; 5-lipoxygenase blocker, secapin-2 injection) is given as “suppress pain and edema responses”.
In the case of `COc1cc(CNC(=O)CCCC/C=C/C(C)C)ccc1O` [capsaicin], the “TRPV1 current by agonist” value [5] is reported as “a current increase”.
In the case of `Oc1cc2c(cc1O)CN(C(=S)NCCc1ccc(Cl)cc1)CCC2` [capsazepine], the “block of venom extract-induced TRPV1 current increase” value ([5]; 10 µM capsazepine, 0.4 µg/µL extract + 1 µM capsaicin, holding −90 mV, n ≥ 3) is given as “the current increase by whole venom setae extract disappeared” and the “reduction of caterpillar-induced pain” value [6] is given as “a notable reduction”.
In the case of `NCCc1c[nH]cn1` [histamine], the “H1R current by agonist” value [7] is reported as “a current increase”.
In the case of `COc1ccc2c(c1)c(CC(=O)O)c(C)n2C(=O)c1ccc(Cl)cc1` [indomethacin], the “reduction of secapin-2 edema formation and pain sensation” value ([4]; nonspecific antagonist of cyclooxygenase) is given as “did not show any reducing effects on edema formation and pain sensation”.
For `NCCCCN` [putrescine], the “TRPV1 activity, putrescine alone” value ([8]; 5 mM putrescine alone) is listed as “did not induce a detectable TRPV1 activity”, the “enhancement of capsaicin-evoked TRPV1 current” value ([8]; 5 mM putrescine with 30 nM capsaicin) is listed as “remarkably intensified the current evoked by 30 nM capsaicin” and the histamine-N-methyltransferase activity [9] is listed as “inhibiting histamine-N-methyltransferase activity”. For the same compound, the “duration of sustained edema” value [10] was 6 h and the mechanical allodynia [10] was “induction of mechanical allodynia”.
For “DHETDLDDSNVPRIGRHIIDAPKRGCPEGYRKDHQGKCREVL (disulfide 26-38) [TPTX1-Tp1]”, the “effect on TRPV1, peptide alone” value ([5]; 1 µM TPTX1-Tp1 (Fig. 4B), no capsaicin, ramp −120 to +70 mV from −20 mV, ND96) was “does not have an effect on TRPV1 injected oocytes” and the “TRPV1 current with capsaicin” value ([5]; TPTX1-Tp1 combined with 0.1 µM capsaicin, ramp −120 to +70 mV from −20 mV, ND96) was “induces an increase in the current”.
With bradykinin the “B2R conductance by agonist” value [11] was “evoked a change of conductance”.
